Reference: US20240415793A1, “Neuroprotective composition comprising pyruvate and citrate” (N.V. Nutricia, priority 2022, published 2024)

How the values were obtained:
[1] = tested on: primary rat neuronal-glial cell cultures; experiment: Seahorse assay (OCR/ECAR), acute 1 h nutrient pre-incubation, resting or seizure-like conditions; format: cell-based; conditions: 1 mM citrate
Experimental: A Seahorse assay was performed on primary rat neuronal-glial cell cultures to determine the impact of pyruvate and citric acid on glycolytic rates and lactate delivery, mitochondrial respiration and total (glycolytic and mitochondrial) ATP production.
Rat cortical cells were isolated from embryonic day 18 embryos using a combination of enzymatic and mechanical dissociation of brain cortical rat tissue. Immediately after dissociation, the cells were seeded at a density of 500′000 cells per mL in 96-well plates and grown at 37° C. for two weeks from day in vitro (DIV) 0 until DIV14 in Neurobasal medium supplemented with 2% (v/v) B27, 0.8 mM Magnesium (Mg2+), 25 mM glucose and 1% (v/v) Penicillin/Streptomycin. During this time neuronal axons grew out and formed synaptic contacts. In addition, glial cells, foremost astrocytes, grew and formed contacts with neurons. The incubation in 25 mM glucose accelerated the differentiation and network growth of neurons.
From DIV14 until DIV17, the cells were incubated in Neurobasal medium supplemented with 2% (v/v) B27, 0.8 mM Mg2+, 5 mM glucose and 1% (v/v) Penicillin/Streptomycin. The switch from high to low glucose was done to approach the low intracerebral glucose concentration of the human brain and create a more physiological metabolic environment.
The switch from 5 mM to 1 mM glucose matched the glucose concentrations in the human brain. Meanwhile the switch from high (0.8 mM) to low (0.1 mM) Mg^2+ increases the electrical firing frequency of neurons because Mg2+ is an inhibitor of excitatory NMDA-type ionotropic glutamate receptors, which account for most of the neuronal firing in this cell culture model. The increase in neuronal firing caused by incubation in 0.1 mM Mg^2+ increases the energy production of neurons and glial cells as reflected in the increase in basal respiration (FIG. 1B and E). After 1 hour of pre-incubation in the Seahorse medium containing the nutrients, the oxygen consumption rate [OCRs] and extracellular acidification rate [ECARs] of the neuroglial culture were measured in the Seahorse assay.
The oxygen consumption rates (OCRs) and extracellular acidification rates (ECARs) of cells seeded in 96-well plates were monitored in real time at 37° C. in unbuffered Hanks Balanced Salt Solution (HBSS). The OCRs represent foremost mitochondrial respiration, and to a minor extent non-mitochondrial respiration. The ECARs relate foremost to the acidification of the medium with lactate produced through glycolysis and secreted by the cells into the medium (Table 1).
During the Seahorse run, both the OCRs and ECARs were measured simultaneously at baseline and following the injection of compounds by the Seahorse instrument (Table 1). HBSS was supplemented with glucose from the start and no glucose was injected through the Seahorse instruments. Measurements were repeated three times at baseline and three times after each compound injection.
After the initial baseline measurement, oligomycin (OM) was injected. OM blocks mitochondrial ATP synthase (complex V) and therefore decreases mitochondrial respiration. The OCRs after OM injection are due to the mitochondrial proton leak. They enable to determine whether the test nutrients impact the proton leak. The difference in OCRs at baseline and after OM injection is the amount of oxygen used for mitochondrial ATP synthesis at baseline. From this difference in OCR, the mitochondrial ATP production rates are calculated.
After OM, uncoupling agent carbonyl cyanide-p- trifluoromethoxyphenyl-hydrazon [FCCP] was injected which collapses the proton gradient across the inner mitochondrial membrane established during respiration and required for ATP synthesis. The cells attempt to restore the proton gradient following FCCP injection by maximizing respiration. […]

[2] = tested on: Phosphofructokinase 1 (PFK1); conditions: tissue- and brain-specific isoforms; cited from earlier work

Question: What does the source list for `O=C(O)CC(O)(CC(=O)O)C(=O)O` [citrate]?
Answer: increase in total (mitochondrial and glycolytic) ATP production ([1]; 0.1 mM Mg2+ control medium, FIG. 3A): ~60%; increase in basal mitochondrial respiration ([1]; 0.1 mM Mg2+ control medium, FIG. 3B): ~40%; increase in basal glycolytic rates ([1]; 0.1 mM Mg2+ medium, FIG. 3C): ~20%; concentrations at which PFK1 isoforms are inhibited [2]: above 100 μM
